Data reported in patent publication US7259004B1, “Endophytic streptomycetes from higher plants with biological activity” (Montana State University, priority 2002, dated 2007).

System: M. tuberculosis MDR-P (drug resistant)
Assay: microbe, parasite or virus in culture
Assay type: cell-based, Mycobacterium tuberculosis
Details: for IC50 M. tuberculosis MDR-P (drug resistant): 7H11 agar with 10% OADC

| Molecule | IC50 (Mycobacterium tuberculosis, read-out: IC50 M. tuberculosis MDR-P (drug resistant)) [µg/mL] | IC50 M. tuberculosis MDR-P (drug resistant) [micrograms/ml] |
| --- | --- | --- |
| CO[C@H]1/C=C/O[C@@]2(C)Oc3c(C)c(O)c4c(O)c(c(/C=N/N5CCN(C)CC5)c(O)c4c3C2=O)NC(=O)/C(C)=C\C=C\[C@H](C)[C@H](O)[C@@H](C)[C@@H](O)[C@@H](C)[C@H](OC(C)=O)[C@@H]1C [Rifampicin, reference compound] | > 150 |  |
| munumbicin B |  | 10 |
| munumbicin C |  | >125 |
